# Experimental data published in US4474806A, “Sulfonyl or carbonyl inositol derivatives useful as anti-inflammatory/analgesic agents” (Merck & Co., Inc., priority 1982, dated 1984).
# What was measured:
# phospholipase C = conditions: background statement, no concentration given; cited from earlier work
# [1] = system: Phosphatidyl inositol-specific phospholipase C; assay: Phosphatidyl inositol-specific phospholipase C assay with sonicated human platelets, release of water-soluble 3H-inositol counts; assay type: biochemical; conditions: 250 μm PI, 10 minutes
# Method: This invention also relates to a method of treating inflammation in patients using a compound of Formula (I) as the active constituent.
# A. Protocol - Phosphatidyl inositol-specific
# phospholipase C assays. The assays were performed as
# follows: A mixture of PI (Sigma) and
# (^3 H--inositol)-PI in CHCl3 are blown to dryness
# under N2 and sonicated into a buffer containing DOC
# and CaCl2 so that the final concentrations in each
# 0.5 mg/ml DOC containing an appropriate amount of
# in 50 mM Hepes, 100 mM NaCl, 0.5 mg/ml BSA pH 7.
# An aliquot of sonicated human platelets,
# 5 × 10^9 /ml, is added; the reaction is stopped after
# 10 minutes with a chloroform/methanol/H2 O solution
# and the upper water phase is counted to detect
# water-soluble inositol counts. The pH was checked
# during each assay using pH paper to verify that none
# of the compounds affected this parameter.
structure (smiles),measurement,setting,value
c1ccc2c(c1)Nc1ccccc1S2 [phenothiazine],inhibition of phospholipase C,phospholipase C,inhibited
CCCCCCCCCCCCNC(=O)OC1C(O)C(O)C(O)C(O)C1O (stereo not shown) [myo-inositol-6 (or 5)-dodecanecarbamate],% Inhibition (specific phospholipase C inhibition),[1]; Conc. 0.8 mM,16%
CCCCCCCCCCCCCCCC(=O)OC1C(O)C(O)C(O)C(O)C1O (stereo not shown) [myo-inositol-5 (or 6)-palmitate],% Inhibition (specific phospholipase C inhibition),[1]; Conc. 0.122 mM,7%
same,% Inhibition (specific phospholipase C inhibition),[1]; Conc. 1.22 mM,55%
